We go through one compound from article PMC6497555 (Molecular cancer therapeutics, 2019).

This data set deals with HeyA8 tumor model. The data set can be described thus: HeyA8 intraperitoneal ovarian cancer mouse model. The following applies: all four groups compared; EP-100 0.2 mg/kg, olaparib 50 mg/kg. The data set is classed as in vivo.

Molecules are shown by their SMILES.

On to `O=C(c1cc(Cc2n[nH]c(=O)c3ccccc23)ccc1F)N1CCN(C(=O)C2CC2)CC1` [olaparib], for which the “Body weights of the host mice at the end of the experiment” value was “did not differ significantly”.
